These results are taken from patent US6413996B2, “Diaminocyclobutene-3,4-dione derivatives, their preparation and use” (Neurosearch A/S, priority 1998, dated 2002).

pKd: −log10 of the molar value.

Assay [1] concerns normal erythrocytes. In words: K+-flux estimated by measuring extracellular K+-concentration vs time. The assay is classed as cell-based. Particulars: 10 μM. An excerpt:
Deoxygenation induced permeability increases of sickle cells were estimated by measuring the extracellular K^+-concentration vs time. […] The K^+ flux from oxygenated sickle erythrocytes was 2-3 times higher than from normal erythrocytes and these fluxes was accelerated 4 - 8 times upon deoxygenation.

For assay [2], the system named is chloride channels in homozygoteous sickle cell erythrocytes. The experiment in a line: Cl- conductance (GCl) in suspensions of sickle cell erythrocytes. In kind it is cell-based. Particulars: oxygenated as well as deoxygenated homozygoteous sickle cell erythrocytes. An excerpt:
(§1) The compounds of the present invention are potent blockers of chloride channels in normal as well as sickle cell erythrocytes.
(§2) All dose-response experiments were therefore performed by concomitant measurements of conductive netfluxes of Cl^− (JCl) and membrane potentials (Vm) in suspensions of erythrocytes (Bennekou, P. and Christophersen, P. (1986), Flux ratio of Valinomycin - Mediated K^+ Fluxes across the Human Red Cell Membrane in the presence of the Protronophore CCCP. J. Membrane Biol. 93, 221-227. ). The membrane Cl^−conductances (GCl) were calculated by the following equation (Hodgkin, A. L. and Huxley, A. F. (1952) The components of membrane conductance in the giant axon of Loligo. J. Physiol. Lond. 116, 449-472): [formula]
(§3) where F is the Faraday constant, ECl is the Nernst potential for the Cl-ion.

Assay [3] relates to chloride channels in normal erythrocytes. In words: Cl- conductance (GCl) from concomitant measurement of conductive Cl- netfluxes and membrane potentials in erythrocyte suspensions. In kind it is cell-based, human. The note with it: suspension of normal erythrocytes.
Source text: as §1, §2, §3

Assay [4] concerns osteoclast bone resorbtion. Particulars: in vitro (Ohba et al, 1996); cited from earlier work.
Assay [5] relates to vacuolar-type proton pump. Particulars: cited from earlier work.
The subject of assay [6] is bone degration. Particulars: in vivo, growing young rats (Keeling et al, 1997); cited from earlier work.

Consider `O=C(Nc1cccc(C(F)(F)F)c1)Nc1ccccc1C(=O)O` [3-Trifluoromethylphenyl-2-carboxyphenyl urea], for which the “sensitivity of K+-fluxes to compound” value in assay [1] was “insensitive”. The “block of GCl from sickle cell erythrocytes” value in assay [2] is “equipotently blocked”. Further, the “block of GCl” value in assay [3] is given as “more than 95%”. In assay [3] (read-out: KD-value for block of GCl), the pKd (usually the Kd on a negative log10 scale, so that one unit is a factor of ten) is 5.89.
`CC(=O)Nc1nnc(S(N)(=O)=O)s1` [acetacolamide]: the “effect on bone resorbtion in pit formation assay” value in assay [4] was “effective”.
`CO/C1=C\C(C)=C\[C@@H](C)[C@@H](O)[C@@H](C)C/C(C)=C/C=C/[C@H](OC)[C@@H]([C@@H](C)[C@@H](O)[C@H](C)[C@@]2(O)C[C@@H](O)[C@H](C)[C@@H](C(C)C)O2)OC1=O` [bafilomycin A1]: the “block of the proton pump” value in assay [5] was “extremely potent, reversible inhibitor”. In addition, in assay [4], the “effect on bone resorbtion in pit formation assay” value is “completely eliminates bone resorbtion”. Moreover, the “effect on bone degration” value in assay [6] was “depresses bone degration”.
With `COc1ccc2[nH]c([S+]([O-])Cc3ncc(C)c(OC)c3C)nc2c1` (stereo not drawn) [omeprazol], in assay [5], the “block of the proton pump” value is given as “ineffective”.
